Measurements reported in patent EP0404374A2, “Composition” (IMPERIAL CHEMICAL INDUSTRIES PLC, priority 1989, dated 1990).
Where a name gives a salt, the structure may show the parent alone.

How the values were obtained:
[1] = test system: cellulase from Aspergillus niger; test: cellulase activity: viscosity (flow time) of carboxymethyl cellulose solution; format: biochemical; settings: additive 10mM dm⁻³ pre-incubated with enzyme one hour at 25°C, about 24 minutes in the absence of cellulase; for Flow Rate (b) With additive 10: flow time after 10 minutes incubation; for Flow Rate (b) With additive 60: flow time after 60 minutes incubation
Procedure: To determine cellulase activity, 15cm³ of a 1% w/v solution of carboxymethyl cellulose in 50mM/dm³ of a tris (hydroxymethyl) aminomethane/hydrochloric acid buffer having a pH of 9, was incubated at 25°C with 0.01cm³ of a 10mg.cm⁻³ aqueous solution of cellulase from Aspergillus niger obtained from the Sigma Chemical Company.
The viscosity of the cellulose solution was determined after being incubated with the cellulase for either 10 or 60 minutes
To determine the effect of an additive on the spoilage activity of the enzyme, the compound was incubated with the enzyme at 25°C for a period of one hour, the concentration of the additive being 10mM dm⁻³ . The pre-incubated mixture was then added to a carboxymethyl cellulose solution of the type previously described. The resulting mixture was incubated and the viscosity was determined after 10 and 60 minutes incubation.

[2] = test system: lipase from Candida cylindracea; test: lipase activity, turbidimetric method with triolein; format: biochemical; settings: enzyme CC; 9 millimoles; incubated 30 minutes at 25°C, pH 9.2; relative to control
Procedure: (§1) N,N¹-dichlorodimethyl hydantoin in an amount of 9 millimoles was dissolved in ethanol and added to a lipase in a tris (hydroxymethyl) aminomethane/hydrochloric acid buffer at a pH of 9.2. The mixture was incubated for 30 minutes at 25°C and neutralised by the addition of thiosulphate. The activity of the enzyme was determined as described hereafter.
(§2) Lipase activity was determined by the turbidimetric method described on pages 26 to 34 of "Methods of Enzymatic Analysis" Third Edition, edited by H V Bergmeyer and published by Verlag Chemie. The decrease in the light scattering of triolein (1,2,3-tris[cis-9-octadecenoyl]glycerol) by lipase was measured at 25°C and 350 nanometres on a Perkin-Elmer Lambda 15 spectrophotometer. Light scattering was measured on 2.8cm³ of an aqueous solution containing 24 micromoles of "Tris" buffer at pH 9.2, one micromole of calcium chloride, 35 micromoles of sodium chloride, 17.5 micromoles of sodium deoxycholate and 0.28 micromole of triolein. The activity was determined by the addition of 5mm³ of an aqueous solution containing 4.5mg cm⁻³ of lipase. Table Two

[3] = test system: lipase from Pseudomonas species; test: as above; format: biochemical; settings: enzyme PS; 9 millimoles; incubated 30 minutes at 25°C, pH 9.2; relative to control
Procedure: as §1, §2

[4] = biological target: chymotrypsin (EC 3.4.21.1) (Bos taurus, UniProt P00766); test: protease catalysed hydrolysis of chromogenic substrate; format: biochemical; settings: pH 7, substrate BTEE, one hour at 25°C, pH7, read-out: % of activity retained (h)
Procedure: N,N¹-dichlorodimethyl hydantoin was dissolved in ethanol in a known amount and was added to a protease in a 0.1M potassium phosphate buffer containing potassium dihydrogen phosphate and dipotassium hydrogen phosphate at pH7.

[5] = test system: protease from S. griseus; test: as above; format: biochemical; settings: substrate BTEE, one hour at 25°C, pH7
Procedure: N,N¹-dichlorodimethyl hydantoin was dissolved in ethanol in a known amount and was added to a protease in a 0.1M potassium phosphate buffer containing potassium dihydrogen phosphate and dipotassium hydrogen phosphate at pH7. The mixture was incubated for one hour at 25°C and the enzyme activity was then compared to that of a control by monitoring the protease catalysed hydrolysis of an appropriate chromogenic substrate.

[6] = test system: amylase (1,4-α-D-glucan-glucanhydrolase; EC 3.2.1.1); test: amylase activity in the breakdown of starch (3,5-dinitrosalicylate, absorbance at 540nm); format: biochemical, Bacillus species; settings: amylase incubated for 90 minutes with 9 X 10⁻⁴M compound; absorption at 540nm
Procedure: A sample of amylase (1,4-α-D-glucan-glucanhydrolase; EC 3.2.1.1) from a Bacillus species (amylase sample obtained from the Sigma Chemical Company) was tested for activity in the breakdown of starch in the presence and absence of N,N¹-dichlorodimethyl hydantoin.
The activity of the amylase was estimated by a modification of the method described in Methods in Enzymology, published by the Academic Press, Volume 1, on page 149.
1g of potato amylopectin (a soluble starch) was dissolved in 200cm³ of a 20mM sodium phosphate aqueous buffer solution adjusted to pH7. 1cm³ of this solution was equilibrated in a water bath maintained at 25 °C. To the foregoing solution were added 2mm³ of an aqueous solution containing amylase in a concentration of 1mg of amylase/cm³ of solution. The mixture was incubated at 25 °C for five minutes. The reaction was then stopped by the addition of 1cm³ of a 0.4M aqueous sodium hydroxide solution containing 10mg/cm³ of 3,5-dinitrosalicylate and 0.3g/cm³ of sodium potassium tartrate. The resultant mixture was placed in a boiling water bath for five minutes, cooled rapidly and diluted with 10cm³ of water (deionised and subsequently doubly distilled in glass apparatus). The absorbance of the resulting mixture at 540nm was determined using a Perkin Elmer LAMBDA 15 spectrophoto meter.

[7] = test system: purified components of the cellulase complex; settings: Wood et al, Biochem.J. (1980), 189, 51 to 65; cited from earlier work

Row | Compound | Flow Rate (b) With additive 10 [1] | Flow Rate (b) With additive 60 [1] | other results
1 | Cln1cncn1 [CT, 1-chloro-1,2,4-triazole] | 23.50 min | 22.90 min | 
2 | sodium tetrachloroaurate [STCA] | 23.80 min | 23.70 min | 
3 | O=c1[nH]c(=O)n(Cl)c(=O)n1Cl [DCIA, dichloroisocyanuric acid] | 22.10 min | 22.30 min | 
4 | CC(=O)OI(OC(C)=O)c1ccccc1 [PIDA, phenyl iodonium di-acetate] | 22.60 min | 21.80 min | 
5 | O=C1N(Cl)C2C(N1Cl)N(Cl)C(=O)N2Cl (centres unmarked) [TCG, tetrachloroglycoluril] | 23.60 min | 23.00 min | 
6 | O=S(=O)(c1ccccc1)N(Cl)Cl [DCBS, N,N-dichlorobenzene sulphonamide] | 21.20 min | 18.80 min | 
7 | O=c1[nH]c(=O)n(Cl)c(=O)n1Cl [DCIS, sodium salt of dichlorosiocyanuric acid] | 21.90 min | 19.40 min | 
8 | CC1(C)C(=O)N(Cl)C(=O)N1Cl [DCMH, N,N¹-dichlorodimethyl hydantoin] | 23.10 min | 22.90 min | % of activity retained (d) [2]: 14%; % of activity retained (d) [3]: 45%; activity at 900 µM ([4]; DCMH 0.9 mM): 66%; activity at 9000 µM ([4]; DCMH 9.0 mM): 29%; % of activity retained (h) ([5]; DCMH 0.9 mM): 88%; % of activity retained (h) ([5]; DCMH 9.0 mM): 9%; breakdown of starch to sugar [6]: no breakdown of starch to sugar could be deteced
9 | CC12N(Cl)C(=O)N(Cl)C1(C)N(Cl)C(=O)N2Cl (centres unmarked) [TCMG, tetrachloro-dimethyl glycoluril] | 22.80 min | 22.50 min | 
10 | O=C1CCC(=O)N1Br [N-bromosuccinimide] |  |  | effect on the activity of the enzyme [7]: potent inhibitor
